Experimental data from ChEMBL document CHEMBL3301472, “MMV Malaria Box HIV and cytotoxicity screening”.

What was measured:
Format in all cases: toxicity, cell-based
[1] = MMV: MTT Cytotoxicity Assay Day 3 pi, U87-CD4-CCR5 cells, % cell death @ 5mM compound; conditions: human, u87-cd4-ccr5, 5000 µM
[2] = MMV: MTT Cytotoxicity Assay Day 3 pi, U87-CD4-CXCR4 cells, % cell death @ 5mM compound; conditions: human, u87-cd4-cxcr4, 5000 µM
[3] = MMV: MTT Cytotoxicity Assay Day 7 pi of Assay #7 (compound washed out Day 1 pi), U87-CD4-CXCR4 cells, % cell death @ 5mM compound; conditions: human, u87-cd4-cxcr4, 5000 µM
[4] = MMV: MTT Cytotoxicity Assay Day 7 pi of Assay #10 (NO washout), U87-CD4-CCR5 cells, % cell death @ 5mM compound; conditions: human, u87-cd4-ccr5, 5000 µM
[5] = MMV: MTT Cytotoxicity Assay Day 7 pi of Assay #11 (NO washout), U87-CD4-CXCR4 cells, % cell death @ 5mM compound; conditions: human, u87-cd4-cxcr4, 5000 µM
[6] = MMV: MTT Cytotoxicity Assay Day 7 pi of Assay #6 (compound washed out Day 1 pi), U87-CD4-CCR5 cells, % cell death @ 5mM compound; conditions: human, u87-cd4-ccr5, 5000 µM

Structure (SMILES) | % Cell Death [1] | % Cell Death [2] | % Cell Death [3] | % Cell Death [4] | % Cell Death [5] | % Cell Death [6]
COc1ccc(C2c3ccc4ccccc4c3Oc3ncn(CCCn4ccnc4)c(=N)c32)cc1OC (stereo not drawn) | 39 | 38 | -25 | -6 | -30 | -22
CN(C)c1ccc(C(O)(c2ccc(N(C)C)cc2)c2ccc(N(C)C)cc2)cc1 [METHYLROSANILINE] | 2 | 98 | -2 | 23 | 71 | 3
Cc1ccc(-c2cc3c(nn2)-c2ccccc2C3=O)cc1 | 46 | 57 | 58 | 106 | 96 | 48
COc1ccc(C(=O)NC(c2ccc(Cl)cc2Cl)c2cc(Cl)c3cccnc3c2O)cc1 (stereo not drawn) | 42 | 58 | 18 | 84 | 102 | 1
CN(C)c1ccc(C=Cc2nc(=O)c3ccccc3o2)cc1 | 39 | 38 | 0 | 46 | 20 | -14
CCCCC(O)(c1ccc(Cl)cc1)C(CN1CCOCC1)c1ccc(Cl)cc1.Cl (stereo not drawn) | -6 | 36 | -16 | 17 | 41 | -10
CCOC(=O)C1CCN(C(=O)CN2C(=O)c3ccccc3C2c2c[nH]c3ccccc23)CC1 (stereo not drawn) | 107 | 35 | 39 | 109 | 112 | 52
COc1cccc(Nc2nc(NCCO)c3ccccc3n2)c1.Cl | 15 | -1 | -16 | 3 | 46 | 44
O=C(Nc1ccc(CN2CCOCC2)cc1)c1ccc(-c2ccc(Br)cc2)o1 | 20 | 15 | -2 | 96 | 6 | 14
O=C(NC(c1ccccc1)c1ccc2cccnc2c1O)c1ccccc1 (stereo not drawn) | -19 | 12 | -26 | 122 | 39 | 43
Fc1ccc2[nH]c3c(NCCCN4CCOCC4)ncnc3c2c1 | -1 | 36 | 7 | 38 | 49 | 34
CCOC(=O)C1=C(c2ccccc2)N=c2sc(=Cc3cc(C)n(-c4ccc(F)cc4)c3C)c(=O)n2C1c1cccc(OC)c1OC (stereo not drawn) | 18 | 45 | -3 | -17 | 20 | 5
Cc1cc(C=C2SC(=Nc3ccccc3)N(C3CCCC3)C2=O)c(C)n1-c1ccc(Cl)cc1 | 96 | 65 | 36 | 140 | 90 | 8
Cc1ccc(F)cc1NC(=O)c1cc(Cl)ccc1Nc1ccccc1 | 7 | 25 | -2 | 28 | -27 | 8
O=C1c2ccccc2C2=Nc3ccccc3SC(c3cccc(F)c3)C12 (stereo not drawn) | 11 | 20 | 28 | 7 | 4 | -3
COc1ccc(CCN2CCC(CN(C)Cc3cnn(-c4ccccc4)c3)CC2)cc1 | 33 | 53 | 16 | 110 | 93 | 68
CCOc1cc(Cl)c(C(C)NC(=O)c2cccc(OC)c2)cc1OCC (stereo not drawn) | -1 | 37 | 16 | 24 | 28 | 10
CCOc1ccc(-c2nonc2NC(=O)c2cccc(C)c2)cc1OCC | -8 | 13 | -14 | 19 | -48 | -8
